The assay addresses human indolethylamine-N-methyltransferase (hINMT) (Homo sapiens, UniProt O95050). The assay can be described thus: radiometric […]SAM methyltransferase assay, pure hINMT. It is filed as biochemical.

Molecules are shown by their SMILES.

Chain of human indolethylamine-N-methyltransferase (hINMT) (O95050 whole entry): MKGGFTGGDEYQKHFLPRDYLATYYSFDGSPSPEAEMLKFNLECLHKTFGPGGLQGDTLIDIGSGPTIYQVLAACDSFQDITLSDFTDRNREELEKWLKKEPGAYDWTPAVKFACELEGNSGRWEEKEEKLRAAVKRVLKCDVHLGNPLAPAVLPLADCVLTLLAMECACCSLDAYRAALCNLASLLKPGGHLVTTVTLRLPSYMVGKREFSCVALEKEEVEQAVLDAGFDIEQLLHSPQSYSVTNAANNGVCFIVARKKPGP

For orientation: IC50 means the midpoint of a concentration-inhibition curve. Regarding `CN(C)CCCNCCc1c[nH]c2ccccc12` [PDAT, N-[2-(1H-indol-3-yl)ethyl]-N′,N′-dimethylpropane-1,3-diamine], the IC50 was around 1000 µM.

Source of the values: PMC4025572 (Biochemistry, 2014).
